# Columns and labels:
# chickweed = assay: Test C postemergence; format: in vivo, Stellaria media; conditions: for Chickweed plant response rating: 16 g ai/ha, visual rating; for Chickweed plant response rating / Plant response rating (0 to 100), Chickweed: postemergence; for Chickweed plant response rating / Plant response rating, Chickweed: scale 0 to 100 (0 no effect, 100 complete control); for Plant response rating (0 to 100), Chickweed: 125 g ai/ha; for Plant response rating, Chickweed: Postemergence
# How it was run: (§1)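 Whole-plant greenhouse test with surfactant-containing solvent formulation, applied preemergence to sown loam–sand pots or postemergence to 2–18 cm plants. Scored by eye 13 to 15 days on, 0–100 scale.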
# Italian ryegrass = assay: Test C preemergence; format: in vivo, Lolium multiflorum; conditions: for Ryegrass, Italian plant response rating: preemergence; for Plant response rating, Ryegrass, Italian: Preemergence, 31 g ai/ha, scale 0 to 100, 0 no effect, 100 complete control
# How it was run: as §1
# giant foxtail = assay: Test A preemergence; format: in vivo, Setaria faberii; conditions: for Plant response rating, Foxtail, Giant: 125 g ai/ha, 0 to 100 scale where 0 is no effect and 100 is complete control; for Foxtail, Giant plant response rating: 500 g ai/ha, 0 to 100 scale, 0 no effect, 100 complete control, approx. 10 days
# How it was run: (§2)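 Pre- and postemergence greenhouse screen. Soil: loam + sand. Spray carrier: solvent mixture, non-phytotoxic, with surfactant. Post timing at 1–2 leaves, height 2–10 cm. Readout: visual injury on a 0–100 scale roughly 10 days after application, untreated plants as reference.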
# pigweed = assay: Test A postemergence; format: in vivo, Amaranthus retroflexus; conditions: 0 to 100 scale where 0 is no effect and 100 is complete control
# How it was run: as §2
# large (Lg) crabgrass = assay: Test C postemergence; format: in vivo, Digitaria sanguinalis; conditions: for Crabgrass, Large plant response rating: 16 g ai/ha, visual rating; for Crabgrass, Large plant response rating / Plant response rating (0 to 100), Crabgrass, Large: postemergence; for Crabgrass, Large plant response rating / Plant response rating, Crabgrass, Large: scale 0 to 100 (0 no effect, 100 complete control); for Plant response rating (0 to 100), Crabgrass, Large: 125 g ai/ha; for Plant response rating, Crabgrass, Large: Postemergence
# How it was run: as §1
# morningglory = assay: Test C preemergence; format: in vivo, Ipomoea coccinea; conditions: for Morningglory plant response rating: preemergence; for Plant response rating, Morningglory: Preemergence, 31 g ai/ha, scale 0 to 100, 0 no effect, 100 complete control
# How it was run: as §1
# johnsongrass = assay: Test C preemergence; format: in vivo, Sorghum halepense; conditions: for Johnsongrass plant response rating: preemergence; for Plant response rating, Johnsongrass: Preemergence, 31 g ai/ha, scale 0 to 100, 0 no effect, 100 complete control
# How it was run: as §1
# galium = assay: Test C preemergence; format: in vivo, Galium aparine; conditions: for Galium plant response rating: preemergence; for Plant response rating, Galium: Preemergence, 31 g ai/ha, scale 0 to 100, 0 no effect, 100 complete control
# How it was run: as §1
# wheat, winter = assay: Test C postemergence; format: in vivo, Triticum aestivum; conditions: for Plant response rating (0 to 100), Wheat: 125 g ai/ha, postemergence; for Plant response rating, Wheat: Postemergence, scale 0 to 100 (0 no effect, 100 complete control)
# How it was run: as §1
# oilseed rape = assay: Test C preemergence; format: in vivo, Brassica napus; conditions: for Oilseed Rape plant response rating: preemergence; for Plant response rating, Oilseed Rape: Preemergence, 31 g ai/ha, scale 0 to 100, 0 no effect, 100 complete control
# How it was run: as §1
# Heteranthera limosa = assay: Test B flooded paddy test; format: in vivo; conditions: Flood, 250 g ai/ha; 0 to 100 scale where 0 is no effect and 100 is complete control
# How it was run: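 Flooded to 3 cm at the 2-leaf stage, pots received compound through the paddy water and were kept at that depth under greenhouse conditions. After 13–15 days, effect was rated by eye relative to controls, 0 = none and 100 = complete control.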
# corn = assay: Test C postemergence; format: in vivo, Zea mays; conditions: for Corn plant response rating: 16 g ai/ha, visual rating; for Corn plant response rating / Plant response rating (0 to 100), Corn: postemergence; for Corn plant response rating / Plant response rating, Corn: scale 0 to 100 (0 no effect, 100 complete control); for Plant response rating (0 to 100), Corn: 125 g ai/ha; for Plant response rating, Corn: Postemergence
# How it was run: as §1
# velvetleaf = assay: Test C preemergence; format: in vivo, Abutilon theophrasti; conditions: for Velvetleaf plant response rating: preemergence; for Plant response rating, Velvetleaf: Preemergence, 31 g ai/ha, scale 0 to 100, 0 no effect, 100 complete control
# How it was run: as §1
# [1] = 16 g ai/ha, scale 0 to 100 (0 no effect, 100 complete control)
# [2] = 62 g ai/ha, scale 0 (no effect) to 100 (complete control)
# [3] = 125 g ai/ha, scale 0 (no effect) to 100 (complete control)
compound,measurement,setting,value
CCOc1cn(-c2c(Br)cccc2Oc2ncc(Cl)cn2)nn1 [Compound 84],Chickweed plant response rating,chickweed; 13 to 15 days,10
same,"Plant response rating (0 to 100), Chickweed",chickweed,50
same,"Plant response rating, Chickweed","chickweed; 31 g ai/ha, 13 to 15 days",10
same,"Plant response rating, Chickweed",chickweed; 62 g ai/ha,40
same,"Ryegrass, Italian plant response rating",Italian ryegrass; [1],0
same,"Ryegrass, Italian plant response rating",Italian ryegrass; [2],5
same,"Ryegrass, Italian plant response rating",Italian ryegrass; [3],5
same,"Plant response rating, Ryegrass, Italian",Italian ryegrass,5
same,"Plant response rating, Foxtail, Giant",giant foxtail,70
same,"Foxtail, Giant plant response rating",giant foxtail,100
same,"Plant response rating, Pigweed",pigweed; 125 g ai/ha,100
same,"Plant response rating, Pigweed",pigweed; 500 g ai/ha,100
same,"Crabgrass, Large plant response rating",large (Lg) crabgrass; 13 to 15 days,5
same,"Plant response rating (0 to 100), Crabgrass, Large",large (Lg) crabgrass,30
same,"Plant response rating, Crabgrass, Large","large (Lg) crabgrass; 31 g ai/ha, 13 to 15 days",5
same,"Plant response rating, Crabgrass, Large",large (Lg) crabgrass; 62 g ai/ha,5
same,Morningglory plant response rating,morningglory; [1],0
same,Morningglory plant response rating,morningglory; [2],25
same,Morningglory plant response rating,morningglory; [3],100
same,"Plant response rating, Morningglory",morningglory,10
same,Johnsongrass plant response rating,johnsongrass; [1],0
same,Johnsongrass plant response rating,johnsongrass; [2],40
same,Johnsongrass plant response rating,johnsongrass; [3],85
same,"Plant response rating, Johnsongrass",johnsongrass,20
same,Galium plant response rating,galium; [1],80
same,Galium plant response rating,galium; [2],100
same,Galium plant response rating,galium; [3],100
same,"Plant response rating, Galium",galium,90
same,"Plant response rating (0 to 100), Wheat","wheat, winter",0
same,"Plant response rating, Wheat","wheat, winter; 31 g ai/ha, 13 to 15 days",0
same,"Plant response rating, Wheat","wheat, winter; 62 g ai/ha",0
same,Oilseed Rape plant response rating,oilseed rape; [1],50
same,Oilseed Rape plant response rating,oilseed rape; [2],100
same,Oilseed Rape plant response rating,oilseed rape; [3],100
same,"Plant response rating, Oilseed Rape",oilseed rape,85
same,"Plant response rating, Ducksalad",Heteranthera limosa,50
same,Corn plant response rating,corn; 13 to 15 days,0
same,"Plant response rating (0 to 100), Corn",corn,5
same,"Plant response rating, Corn","corn; 31 g ai/ha, 13 to 15 days",0
same,"Plant response rating, Corn",corn; 62 g ai/ha,0
same,Velvetleaf plant response rating,velvetleaf; [1],50
same,Velvetleaf plant response rating,velvetleaf; [2],85
same,Velvetleaf plant response rating,velvetleaf; [3],100
same,"Plant response rating, Velvetleaf",velvetleaf,60
N#Cc1cccc(Oc2ncc(F)cn2)c1-n1cc(I)cn1 [Compound 86],Chickweed plant response rating,chickweed; 13 to 15 days,40
same,"Plant response rating (0 to 100), Chickweed",chickweed,80
same,"Plant response rating, Chickweed","chickweed; 31 g ai/ha, 13 to 15 days",55
same,"Plant response rating, Chickweed",chickweed; 62 g ai/ha,60
same,"Ryegrass, Italian plant response rating",Italian ryegrass; [1],0
same,"Ryegrass, Italian plant response rating",Italian ryegrass; [2],30
same,"Ryegrass, Italian plant response rating",Italian ryegrass; [3],35
same,"Plant response rating, Ryegrass, Italian",Italian ryegrass,0
same,"Plant response rating, Foxtail, Giant",giant foxtail,100
same,"Foxtail, Giant plant response rating",giant foxtail,100
same,"Plant response rating, Pigweed",pigweed; 125 g ai/ha,100
same,"Plant response rating, Pigweed",pigweed; 500 g ai/ha,100
same,"Crabgrass, Large plant response rating",large (Lg) crabgrass; 13 to 15 days,5
same,"Plant response rating (0 to 100), Crabgrass, Large",large (Lg) crabgrass,5
same,"Plant response rating, Crabgrass, Large","large (Lg) crabgrass; 31 g ai/ha, 13 to 15 days",5
same,"Plant response rating, Crabgrass, Large",large (Lg) crabgrass; 62 g ai/ha,5
same,Morningglory plant response rating,morningglory; [1],10
same,Morningglory plant response rating,morningglory; [2],60
same,Morningglory plant response rating,morningglory; [3],100
same,"Plant response rating, Morningglory",morningglory,25
same,Johnsongrass plant response rating,johnsongrass; [1],10
same,Johnsongrass plant response rating,johnsongrass; [2],60
same,Johnsongrass plant response rating,johnsongrass; [3],95
same,"Plant response rating, Johnsongrass",johnsongrass,20
same,Galium plant response rating,galium; [1],90
same,Galium plant response rating,galium; [2],98
same,Galium plant response rating,galium; [3],90
same,"Plant response rating, Galium",galium,80
same,"Plant response rating (0 to 100), Wheat","wheat, winter",0
same,"Plant response rating, Wheat","wheat, winter; 31 g ai/ha, 13 to 15 days",0
same,"Plant response rating, Wheat","wheat, winter; 62 g ai/ha",0
same,Oilseed Rape plant response rating,oilseed rape; [1],25
same,Oilseed Rape plant response rating,oilseed rape; [2],100
same,Oilseed Rape plant response rating,oilseed rape; [3],100
same,"Plant response rating, Oilseed Rape",oilseed rape,100
same,"Plant response rating, Ducksalad",Heteranthera limosa,75
same,Corn plant response rating,corn; 13 to 15 days,5
same,"Plant response rating (0 to 100), Corn",corn,10
same,"Plant response rating, Corn","corn; 31 g ai/ha, 13 to 15 days",5
same,"Plant response rating, Corn",corn; 62 g ai/ha,5
same,Velvetleaf plant response rating,velvetleaf; [1],20
same,Velvetleaf plant response rating,velvetleaf; [2],100
same,Velvetleaf plant response rating,velvetleaf; [3],100
same,"Plant response rating, Velvetleaf",velvetleaf,50
N#Cc1cccc(Oc2ncc(Br)cn2)c1-n1cc(I)cn1 [Compound 88],Chickweed plant response rating,chickweed; 13 to 15 days,5
same,"Plant response rating (0 to 100), Chickweed",chickweed,90
same,"Plant response rating, Chickweed","chickweed; 31 g ai/ha, 13 to 15 days",15
same,"Plant response rating, Chickweed",chickweed; 62 g ai/ha,20
same,"Ryegrass, Italian plant response rating",Italian ryegrass; [1],0
same,"Ryegrass, Italian plant response rating",Italian ryegrass; [2],0
same,"Ryegrass, Italian plant response rating",Italian ryegrass; [3],5
same,"Plant response rating, Ryegrass, Italian",Italian ryegrass,0
same,"Plant response rating, Foxtail, Giant",giant foxtail,100
same,"Foxtail, Giant plant response rating",giant foxtail,100
same,"Plant response rating, Pigweed",pigweed; 125 g ai/ha,100
same,"Plant response rating, Pigweed",pigweed; 500 g ai/ha,100
same,"Crabgrass, Large plant response rating",large (Lg) crabgrass; 13 to 15 days,5
same,"Plant response rating (0 to 100), Crabgrass, Large",large (Lg) crabgrass,10
same,"Plant response rating, Crabgrass, Large","large (Lg) crabgrass; 31 g ai/ha, 13 to 15 days",5
same,"Plant response rating, Crabgrass, Large",large (Lg) crabgrass; 62 g ai/ha,10
same,Morningglory plant response rating,morningglory; [1],0
same,Morningglory plant response rating,morningglory; [2],40
same,Morningglory plant response rating,morningglory; [3],90
same,"Plant response rating, Morningglory",morningglory,5
same,Johnsongrass plant response rating,johnsongrass; [1],0
same,Johnsongrass plant response rating,johnsongrass; [2],40
same,Johnsongrass plant response rating,johnsongrass; [3],85
same,"Plant response rating, Johnsongrass",johnsongrass,0
same,Galium plant response rating,galium; [1],0
same,Galium plant response rating,galium; [2],90
same,Galium plant response rating,galium; [3],80
same,"Plant response rating, Galium",galium,50
same,"Plant response rating (0 to 100), Wheat","wheat, winter",5
same,"Plant response rating, Wheat","wheat, winter; 31 g ai/ha, 13 to 15 days",5
same,"Plant response rating, Wheat","wheat, winter; 62 g ai/ha",5
same,Oilseed Rape plant response rating,oilseed rape; [1],10
same,Oilseed Rape plant response rating,oilseed rape; [2],70
same,Oilseed Rape plant response rating,oilseed rape; [3],100
same,"Plant response rating, Oilseed Rape",oilseed rape,100
same,"Plant response rating, Ducksalad",Heteranthera limosa,25
same,Corn plant response rating,corn; 13 to 15 days,5
same,"Plant response rating (0 to 100), Corn",corn,10
same,"Plant response rating, Corn","corn; 31 g ai/ha, 13 to 15 days",10
same,"Plant response rating, Corn",corn; 62 g ai/ha,10
same,Velvetleaf plant response rating,velvetleaf; [1],15
same,Velvetleaf plant response rating,velvetleaf; [2],100
same,Velvetleaf plant response rating,velvetleaf; [3],100
same,"Plant response rating, Velvetleaf",velvetleaf,98

# From patent publication US9695155B2, “Herbicidal substituted pyrimidinyloxy benzene compounds” (E. I. DU PONT DE NEMOURS AND COMPANY, priority 2013, dated 2017)
